What is called Ki is the equilibrium dissociation constant of an inhibitor or competing ligand from its target. What is called inhibition is how much of the control response was suppressed. A word on the EC50: it is the concentration that produces a half-maximal response. Lower therefore signals greater potency. What is called Km is the substrate concentration at which the rate is half of its maximum.

Several values for one entry are separate records, joined by “and”; a condition that tells them apart may be missing. Equal entries are not always repeated.

This is an account of results in paper PMC9331716, “Nucleoside Transport and Nucleobase Uptake Null Mutants in Leishmania mexicana for the Routine Expression and Characterization of Purine and Pyrimidine Transporters” (International Journal of Molecular Sciences, 2022).

For one data set, the target named is FurD. Details: method as in PMID 17520477. The settings on record: FurD in A. nidulans, cited from earlier work.
Data set [1] addresses Aspergillus nidulans uracil transporter FurD (Aspergillus nidulans, UniProt A6N844). The experiment in a line: Transport assay, FurD expressed in Lmex5FURes. Format: cell-based. The protocol:
(§1) Transport assays were performed exactly as described previously. Briefly, 10^7 cells in 100 μL of assay buffer (AB) were mixed with an equal volume of radiolabel at 2× concentration for a preset time. The incubation was terminated by the addition of 700 μL of “Stop solution”, being ice-cold 1 mM solution of unlabelled permeant, followed by immediate centrifugation through an oil layer in a microfuge at 13,000 rpm. This causes the cell pellet to reside under the oil layer and isolated from residual radiolabel in the assay buffer. The tubes were flash-frozen in liquid nitrogen and the bottom tip, containing the cell pellet, cut off and collected in a scintillation tube. Cells were solubilized by gentle shaking after addition of a 2% SDS solution, before the addition of scintillation fluid (Scintilogic U, Lablogic, Sheffield, UK); the tubes were left to stand in the dark overnight before counting in a 300SL Hidex Scintillation Counter (Lablogic). Linear and nonlinear regression analyses were carried out using GraphPad Prism versions 8.0 and higher. […] However, all parameters, including Km, Vmax, Ki, given are the average of at least three separate, independent determinations; errors given are standard errors, unless otherwise specified.

In another data set the test system is Lmex5FURes cells. The experiment in a line: Radiolabel transport assay in Lmex5FURes cells. Format: cell-based, Leishmania mexicana. The protocol:
as §1

In another data set the test system is LmexNT1.1. The experiment in a line: Transport assay, LmexNT1.1 expressed in SUPKO. The settings on record: SUPKO expressing LmexNT1.1, 50 nM radiolabel. Format: cell-based, Leishmania mexicana. The protocol: as §1
The test system of the next data set is L. mexicana NT1-KO cells. The data set can be described thus: Radiolabel transport assay in NT1-KO cells. Format: cell-based, Leishmania mexicana. The protocol:
as §1

The target in data set [2] is T1, TcrNB2 (Trypanosoma cruzi, UniProt Q4DHG0).
T1 sequence (Q4DHG0 1-440): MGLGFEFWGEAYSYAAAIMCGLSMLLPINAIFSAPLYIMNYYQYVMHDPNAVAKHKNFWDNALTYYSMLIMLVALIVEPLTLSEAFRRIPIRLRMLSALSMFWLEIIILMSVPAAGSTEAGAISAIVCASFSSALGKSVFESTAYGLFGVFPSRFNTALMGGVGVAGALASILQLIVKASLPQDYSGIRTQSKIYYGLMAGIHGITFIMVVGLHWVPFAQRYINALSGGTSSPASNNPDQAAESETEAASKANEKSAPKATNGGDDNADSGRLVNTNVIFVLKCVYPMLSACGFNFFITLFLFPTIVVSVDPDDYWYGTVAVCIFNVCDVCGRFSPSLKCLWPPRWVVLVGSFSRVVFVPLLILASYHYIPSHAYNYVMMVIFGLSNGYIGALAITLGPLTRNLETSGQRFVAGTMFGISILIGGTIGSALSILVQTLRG
The experiment in a line: Transport assay, TcrNB2 expressed in NT1-KO. Format: cell-based. The following applies: 50 nM [^3H]-adenosine, 100 nM [^3H]-hypoxanthine, 100 nM [^3H]-uracil; data not shown. The protocol:
as §1

Data set [3] has as its system L. mexicana SUPKO (ΔNT1.1/1.2/2) cells. The data set can be described thus: Radiolabel transport assay in SUPKO cells. Format: cell-based, Leishmania mexicana. The settings on record: for rate of uptake: SUPKO cells. Here is the method: as §1
Data set [4] concerns the target T1, TcrNB2. The experiment in a line: Transport assay, TcrNB2 expressed in LmexNT3-KO. Format: cell-based. The settings on record: 1 mM inhibitor, TcrNB2 in NT3-KO; read-out: inhibition of adenine uptake. The protocol:
as §1

Data set [5] addresses T2, TvagENT3 (Trichomonas vaginalis, UniProt A2E5Q3). The data set can be described thus: cell-based. Here is the method:
as §1

Data set [6] concerns the target T2, TvagENT3. The settings on record: TvagENT3 expressed in T. brucei; cited from earlier work.
The next data set concerns LmexNT1.2. The experiment in a line: Transport assay, LmexNT1.2 expressed in SUPKO. Format: cell-based, Leishmania mexicana. The settings on record: SUPKO expressing LmexNT1.2, 50 nM radiolabel. The protocol:
as §1

Data set [7] deals with L. mexicana cas9 cells. The data set can be described thus: Radiolabel transport assay in cas9 cells. Format: cell-based, Leishmania mexicana. The settings on record: for rate of uptake: cas9 cells. The protocol: as §1
Data set [8] has as its system L. mexicana NT3-KO promastigotes. The experiment in a line: Radiolabel transport assay in NT3-KO cells. Format: cell-based, Leishmania mexicana. Here is the method:
as §1

Data set [9] concerns L. mexicana cas9 promastigotes. The data set can be described thus: Resazurin (Alamar blue) drug sensitivity assay, cas9 control line. Format: cell-based. The settings on record: Leishmania mexicana, n = 3. The protocol:
(§2) The assay is based on the reduction of the dye resazurin (Alamar blue) by live but not dead cells and was performed with various strains of Leishmania mexicana promastigotes, exactly as described. Briefly, doubling dilutions starting at 100 µM were set up over 2 rows of a 96-well plate and 2 × 10^5 cells were added to each well, followed by incubation at 25 °C. After 72 h, 20 µL of 125 µg/mL resazurin solution was added and the plates incubated for a further 24 h. Fluorescence was determined in a FLUOstar OPTIMA plate reader (BMG Labtech, Ortenberg, Germany), reading the fluorescence intensity in arbitrary units (A.U.) at 544 nm wavelength for excitation and 620 nm wavelength for emission. The EC50 values and fluorescence data were determined and plotted to a sigmoid curve with variable slope, using the GraphPad Prism 8 software package. All EC50 values were determined on at least three independent occasions and are presented as average ± SEM.
On the technique in general: The colour change of resazurin is a common sign of viable cells or microbes.

Data set [10] has as its system L. mexicana NT2-KO promastigotes. The experiment in a line: Resazurin (Alamar blue) drug sensitivity assay, NT2-KO line. The settings on record: Leishmania mexicana, NT2-KO strain, n = 3. Format: cell-based. Here is the method:
as §2

Data set [11] relates to L. mexicana cas9 cells. The data set can be described thus: Growth curve of cas9 cells with selection agents. Format: cell-based, Leishmania mexicana. The following applies: 5 μM tubercidin, 5 μg/mL blasticidin, 20 µg/mL puromycin, 1 µM formycin B. The protocol: The growth rates of the L. mexicana promastigotes were determined in the standard HOMEM medium supplemented with 10% FBS, in 12-well plates, in triplicate. After every 24 h, cells were counted in a sample of the culture, using either a Neubauer hemocytometer chamber (Hawksley, Birmingham, UK) or by a coulter particle counter and size analyzer (Beckman, Brea, CA, USA) to count the cells in triplicate. An average of the triplicate readings was taken and plotted using GraphPad Prism 8 software to obtain the growth curves.

In a further data set the target is L. major U1 transporter. Also noted: method as in PMID 15796010. The following applies: unit printed only with the uridine value; cited from earlier work.
Substrate in data set [12]: O=c1cc[nH]c(=O)[nH]1
The data set can be described thus: Transport assay, FurD expressed in Lmex5FURes. Format: cell-based, Aspergillus nidulans. The settings on record: other: FurD in Lmex5FURes, 100 nM [^3H]-uracil over 10 s. Here is the method: as §1

Where [13] appears, read: 50 nM radiolabel, listed as [^3H]-adenosine.

T2 sequence (A2E5Q3 entry or part of it): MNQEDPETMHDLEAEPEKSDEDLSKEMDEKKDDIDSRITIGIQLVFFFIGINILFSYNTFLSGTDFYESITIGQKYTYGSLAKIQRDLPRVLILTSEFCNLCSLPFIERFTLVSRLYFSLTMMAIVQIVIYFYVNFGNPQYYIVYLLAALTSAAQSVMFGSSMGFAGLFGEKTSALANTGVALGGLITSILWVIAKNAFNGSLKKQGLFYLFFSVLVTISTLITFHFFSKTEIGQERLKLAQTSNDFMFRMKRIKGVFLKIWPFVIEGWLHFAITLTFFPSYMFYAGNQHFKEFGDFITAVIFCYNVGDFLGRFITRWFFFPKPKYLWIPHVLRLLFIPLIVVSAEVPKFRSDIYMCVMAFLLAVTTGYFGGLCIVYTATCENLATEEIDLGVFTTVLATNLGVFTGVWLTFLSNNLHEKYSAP

Turning to `O=c1[nH]cc(F)c(=O)[nH]1` [5FU, 5-fluorouracil], the inhibition constant Ki on FurD (unit printed only with the uracil Km) was 460 nM; in data set [1] (FurD in Lmex5FURes, inhibition of [^3H]-uracil uptake) it was 700 ± 250 nM. For the same molecule, the “uptake in Lmex5FURes control” value with Lmex5FURes cells (100 nM [^3H]-5FU, p = 0.27) was “not significantly different from zero”.

Regarding `Nc1ncnc2c1ncn2[C@@H]1O[C@H](CO)[C@@H](O)[C@H]1O` [adenosine], the rate of uptake in the data set with LmexNT1.1 is 0.27 ± 0.006 pmol(10^7 cells)^−1s^−1; with L. mexicana NT1-KO cells (NT1-KO cells, 50 nM radiolabel) it was 0.00048 ± 0.00007 pmol(10^7 cells)^−1s^−1; in [3] (50 nM radiolabel) it was 0.00063 pmol(10^7 cells)^−1s^−1; in data set [3] (setting [13]) it was 0.0006 ± 0.00007 pmol(10^7 cells)^−1s^−1; in data set [3] (100 nM radiolabel) it was 0.00046 ± 0.00002 pmol(10^7 cells)^−1s^−1; at TvagENT3 [5] (SUPKO expressing TvagENT3, 50 nM radiolabel), 0.0080 ± 0.0004 pmol(10^7 cells)^−1s^−1. The rate of uptake in the data set on LmexNT1.2 is 0.36 ± 0.03 pmol(10^7 cells)^−1s^−1; with L. mexicana cas9 cells [7] (setting [13]) it was 0.082 ± 0.004 pmol(10^7 cells)^−1s^−1 and 0.081 ± 0.006 pmol(10^7 cells)^−1s^−1; in the data set with L. mexicana cas9 cells [7] (100 nM radiolabel, listed as [^3H]-adenosine), 0.082 ± 0.004 pmol(10^7 cells)^−1s^−1 and 0.086 ± 0.009 pmol(10^7 cells)^−1s^−1; in [8] (NT3-KO cells, 100 nM radiolabel), 0.55 ± 0.05 pmol(10^7 cells)^−1s^−1. Also, the “rate of uptake lower in NT1-KO than in cas9” value in the data set on L. mexicana NT1-KO cells (50 nM radiolabel) amounted to 99.4%. At TcrNB2 [2], the “effect of TcrNB2 expression on uptake in NT1-KO cells” value was “did not increase”. In addition, in [3] (50 nM radiolabel), the “uptake reduced in SUPKO compared to cas9” value is given as 99%. The inhibition at 1000 µM on TcrNB2 [4] came to 15.5 ± 11.7%. Besides, the “uptake lower in SUPKO than in SUPKO expressing TvagENT3” value at TvagENT3 [5] (50 nM radiolabel) was found to be 94.6%. Further, the inhibition constant Ki on TvagENT3 [6] was 870 ± 150 nM. The “inhibition of [^3H]-thymidine uptake” value in the data set on L. mexicana cas9 cells [7] (0.1 µM [^3H]-thymidine, adenosine concentration and cell line not explicitly printed) is “fully inhibited”. Also, in data set [8] (adenosine and inosine at 100 nM, separate experiments listed singly, listed as [^3H]-adenosine), the “upregulation of uptake rate in NT3-KO relative to cas9” value was 4.0 fold and 6.4 fold.

Regarding `O=c1[nH]cnc2c([C@@H]3O[C@H](CO)[C@@H](O)[C@H]3O)n[nH]c12` [formycin B], the EC50 in [9] was 18 ± 2 nM; in data set [10], 63.5 ± 1.9 µM. In addition, the “sensitivity of cas9 cells in growth curve” value in the data set on L. mexicana cas9 cells [11] was “confirmed”.

For `O=c1cc[nH]c(=O)[nH]1` [uracil], the Michaelis constant (Km) in the data set on FurD was 450 nM. Also, the rate of uptake in [1] (Lmex5FURes expressing FurD clone 2, 100 nM radiolabel) is recorded as 0.29 ± 0.02 pmol(10^7 cells)^−1s^−1; with Lmex5FURes cells (Lmex5FURes cells, 100 nM radiolabel), 0.00057 ± 0.0001 pmol(10^7 cells)^−1s^−1; in data set [3] (100 nM radiolabel) it was 0.00032 ± 0.00003 pmol(10^7 cells)^−1s^−1; in the data set on L. mexicana cas9 cells [7] (100 nM radiolabel), 0.00031 ± 0.00002 pmol(10^7 cells)^−1s^−1. In addition, the “uptake in NT1-KO compared with cas9” value in the data set with L. mexicana NT1-KO cells (100 nM [^3H]-uracil) is given as “identical”. The “effect of TcrNB2 expression on uptake in NT1-KO cells” value on TcrNB2 [2] is reported as “did not increase”. Further, in [3] (100 nM [^3H]-uracil, n = 3, p = 0.81), the “uptake in SUPKO compared with cas9” value is recorded as “identical”. Also, the Ki at L. major U1 transporter was 320 ± 70 nM.

B1: Aspergillus nidulans uracil transporter FurD (Aspergillus nidulans) (protein)
chain: MRFGRFHLRVEQSRSAFASGNARWTNLDLDPVPRAGRVWGPLSFISYWISDAFNAATWQFASSIIAVGLSWRESLGIVALSFFIISFVIAANGAVGSIYHIPFPVIARASWGFWGSYIAIISRVILAIFWFAIQNVNGANAVKAMISAIWPSFLSMKNTIPQDQGIETNTMIAYMIFWIVQMPFLCIHPNKVRWLFATKSVLVPAAWIAILIWAFVAEGKGALFEQRATVSGSQYSWVWLASMTSVLGNYATLSVNQSDFSRYSRVSAKWQLLYIPLLPVIFTFISFIGIAASSAGWTRYNTPSIPWDPIELISHWDSRAARFFGAFSFALASLGVNISANSISAANDLMALFPTYVDLRRGQIICGVISWALVPWKILESASNFLNFMSAYAIFLGPIAAIMLWDFWLIKNRKYDTVALYQPDTPIYRFNAWLVNWRAVVAFLVGVIPSLPGLSNSVNSRIQVGVGIHPYQFGWLLGFVGTSLVYIALSYGFPVREALIERAVLSDEVYEGREVEGEGVEEGREELGESKREGVGKEKGFAVY
Turning to B1, the Km in data set [12] is 0.89 ± 0.20 µM.
